For one data set, the system named is MDA-MB-231 (breast). Nature of the data set: Anti-tumour activity, sulforhodamine B (SRB) colorimetric cell growth test. In kind it is cell-based. Conditions: 48 h exposure, read-out: GI50 (concentration at which the compound tested inhibits 50% of the cell growth in comparison with untreated cells). The method, then:
(§1) The OVM derivatives were tested against a series of cell lines from tumours. Cell growth and viability were quantitatively determined with a colorimetric type test, using the reaction with sulforhodamine B (SRB), according to the technique described by Faircloth et al. (Journal of Tissue and Culture Methods 1988, 11, 201-205).
(§2) 96-well microtiter plates are inoculated with cells (5×10^3 cells per well) in aliquots of 195 μl of medium, incubating them for 18 h, in medium without added compound, to allow the cells to adhere to the surface. Next, the compounds to be tested are added, in samples of 5 μl, in a concentration range of 10 to 10^−8 μg/ml, dissolved in DMSO/EtOH (0.2% in PS buffer). After 48 h exposure, the anti-tumour effect is measured using the SRB technique: the cells are fixed by adding 50 μl of cold trichloroacetic acid (50%) (w/v) and it is incubated for 60 min. at 4° C. The plates are washed with deionized water and dried. 100 μl of SRB solution (0.4% w/v in 1% acetic acid) are added to each well, and it is incubated for 10 min. at ambient temperature. The unbound SRB is eliminated, washing with 1% acetic acid. The plates are air dried and the bound colorant is dissolved with Tris buffer. The optical densities are read in an automatic dish spectrophotometer reader at a wavelength of 490 nm.

A further data set has as its system A549 (lung). The data set is described as above. The format is cell-based. Conditions: 48 h exposure, read-out: GI50 (concentration at which the compound tested inhibits 50% of the cell growth in comparison with untreated cells). The procedure: as §1, §2
The test system of another data set is HT29 (colon). The data set is described as above. In kind it is cell-based. Conditions: read-out: GI50 (concentration at which the compound tested inhibits 50% of the cell growth in comparison with untreated cells). The method, then:
as §1, §2

In a further data set the test system is tumour cell lines. Nature of the data set: Anti-tumour activity against the series of tumour cell lines (SRB test). In kind it is cell-based. Conditions: tumour cell lines of Table 5, in words. The method, then: as §1, §2
(In SRB staining, fixed cells bind dye roughly in proportion to their protein.)

The conditions of data set [1]: spontaneous dehydration and oxidation; J. Am. Chem. Soc. 1999, 121, 1786-1794; cited from earlier work.

Where two headings read alike, the source gives them in different places.

This is an account of results in patent publication US20110207705A1, “OVIEDOMYCIN DERIVATIVES, METHOD FOR OBTAINING SAME AND USE THEREOF” (UNIVERSIDAD DE OVIEDO, priority 2008, published 2011).

For `Cc1cc(O)c2c3c(c(O)c(O)c2c1)C(=O)c1c(O)cccc1C3=O` [formula VIII, 5-hydroxy-dehydro-rabelomycin], the GI50 amounted to 2.56 µM in the data set on MDA-MB-231 (breast), 6.24 µM in the data set with A549 (lung) and 8.03 µM in the data set with HT29 (colon) (48 h exposure).
For `C[C@]1(O)CC(=O)c2c(cc(O)c3c2C(=O)c2ccc(O)c(O)c2C3=O)C1` [formula XIII, 9-hydroxy-rabelomycin] the same measures were 7.06 µM, 3.1 µM and 14.1 µM.
Take `CC1=CC(=O)[C@@H]2c3cc4cccc(O)c4c(O)c3C(=O)C[C@]2(O)C1` [formula X, prejadomycin]: the GI50 is 0.24 µM in the data set on MDA-MB-231 (breast), 0.29 µM with A549 (lung) and 1.29 µM in the data set with HT29 (colon) (48 h exposure). For the same compound, the “GI50 values (in words)” value with tumour cell lines is given as “submicromolar range”. Besides, in the data set on tumour cell lines, the “anti-tumour activity compared with OVM” value is on record as “clearly greater activities than that of the OVM”.
Regarding `C[C@]1(O)CC(=O)c2c(cc(O)c3c2C(=O)c2cccc(O)c2C3=O)C1` [formula VI, rabelomycin], the GI50 was determined as 6.8 µM in the data set on MDA-MB-231 (breast) (Homo sapiens); 5.32 µM in the data set with A549 (lung) (Homo sapiens); 10.9 µM in the data set with HT29 (colon) (Homo sapiens, HT-29, 48 h exposure).
In the case of `Cc1c(O)c2cc(O)c3c(=O)c4c(O)cccc4c(=O)c3c2c(=O)c1=O` [OVM, Oviedomycin], the GI50 in the data set on MDA-MB-231 (breast) is 5.6 µM; in the data set on A549 (lung), 8.7 µM; in the data set on HT29 (colon) (48 h exposure), 6.9 µM.
For 5-hydroxy-rabelomycin [formula XII], the GI50 amounted to 13.3 µM in the data set on MDA-MB-231 (breast), 7.62 µM in the data set on A549 (lung) and 12.4 µM in the data set on HT29 (colon) (48 h exposure).
Consider “prejadomycin 2-carboxylate [formula VII]”, for which the results for the GI50 with MDA-MB-231 (breast), with A549 (lung) and in the data set with HT29 (colon) (48 h exposure) were 0.38 µM, 0.6 µM and 1.17 µM, respectively. The “GI50 values (in words)” value in the data set on tumour cell lines was “submicromolar range”. Also, the “anti-tumour activity compared with OVM” value in the data set on tumour cell lines is recorded as “clearly greater activities than that of the OVM”.
For 4a,12b-dehydro-UWM6 [formula IX] the same measures were 0.65 µM, 0.77 µM, 1.85 µM, “submicromolar range” and “clearly greater activities than that of the OVM”.
Regarding `C[C@]1(O)CC(=O)C2c3cc4cccc(O)c4c(O)c3C(=O)C[C@]2(O)C1` (stereo partly shown) [formula XI, UWM6], the GI50 was 24.8 µM in the data set on MDA-MB-231 (breast), more than 100 µM with A549 (lung) and more than 100 µM in the data set on HT29 (colon) (48 h exposure). In data set [1], the stability entry was “unstable and spontaneously becomes rabelomycin”.
